Test results taken from patent US20190187155A1, “COMPOSITION AND METHODS FOR MEASURING ION CHANNEL ACTIVITY IN A CELL” (LIFE TECHNOLOGIES CORPORATION, priority 2016, published 2019).

Tested on: CHO cells expressing the hERG ion channel
Test: Thallium influx assay of cells expressing the hERG potassium ion channel, loaded with thallium ion indicator
Format: cell-based
Conditions: for Fold Increase Over Baseline (fluorogenic response): loaded 60 minutes, potassium 10 mM; for Fold Increase Over Baseline (fluorogenic response) / detection of thallium ions (fluorescence dF/F over time): final thallium 2 mM; for change of fold increase (fluorogenic response) with dye loading concentration: dye concentration increased from 1 μM to 2 μM; for detection of thallium ions (fluorescence dF/F over time) / response (signal amplitude) post stimulus, Compound 8 relative to Compound 9: FIG. 10, average of 5-10 wells; for response (signal amplitude) post stimulus, Compound 8 relative to Compound 9: fold increase in signal post stimulus over baseline
Procedure: Component A: Thallium ion indicator dye in amount that will prepare 1-10 uM solution in normal Chloride Assay Buffer. Component B: Physiological (normal) Chloride Assay Buffer: NaCl 145 mM; KCl 2.5 mM; CaCl2 1.8 mM; MgCl2 1.0 mM; HEPES 20 mM; pH set to 7.4 with NaOH. Component C: Chloride Free Stimulus Buffer: 140 mM Na Gluconate; 2.5 mM K Gluconate; 1.8 […] Ca Gluconate; 1.0 mM Mg Gluconate; 10 mM HEPES; 25 mM K2SO4; 5.0 mM Tl2SO4.
Cells including an ion channel are cultured to about 75% confluence and in log-phase growth. The cells are then harvested using well-known cell culture techniques and buffers and replated into a 96 well plate at a density of, for example, 5,000-40,000 cells per well (e.g., 20,000 cells per well). The cells comprise the ion channel endogenously, or the cells can be engineered to comprise ion channels of a particular type. Methods of transfecting and/or transforming cells to express a particular type of protein are well known in the art and need not be repeated herein.
To prepare the dye loading buffer, Component A is prepared in assay buffer (Component B) at concentrations from 1-20 micromolar. Optional addition of 1-100 μg/mL Pluronic surfactant can aid-in dispersion and loading of dye and/or 1-10 mM probenecid to aid in retention of the dye. Next the cell culture media is aspirated from the cells in the 96 well plate and replaced with dye loading buffer and incubated at room temperature for 60-120 minutes. While the cells are incubating in loading buffer, stimulus buffer (Component C) is prepared for addition to the microplate. The loading buffer then is removed from the cells, and replaced with […] that contains no dye, to reduce background fluorescence from unincorporated dye in the solution. Next, the fluorescence from the cells is read on a spectrophotometer. For samples implementing a thallium indicator that emits in the green spectral region, the sample is excited with light in the range of 470-500 nm, and emission is read at 520 to 540 nm, with a filter cutoff of 515 nm. For samples implementing a thallium indicator that emits in the red spectral region, the sample is excited with light in the range of 545-565 nm and read at 580-600 nm, with a filter cutoff of 570 nm. A pre-stimulus “baseline” signal is measured at regular intervals for 10-30 seconds in advance of adding Stimulus Buffer (Component C). Component C is added to the cells in a 1:5 dilution at the indicated time, and the increase in fluorescence from the cells is measured over time.
Cells expressing the hERG potassium ion channel were assayed using the method described in Example 10 to compare the efficacy of two different isomeric thallium ion indicators. CHO cells expressing the hERG ion channel were assayed using methods described herein. Cells were loaded in assay buffer containing the indicated concentration of dye in Table 1 (i.e., 1 or 10 μM) washed with dye-free assay buffer (Component B) and the stimulus buffer (Component C) was delivered to the cells in a volume of 25 μL, added to 100 μL for a 5× dilution (Component C, containing 25 mM T K2SO4 and […]). In this particular example, the final concentration of potassium on the cells was 10 mM and the final concentration of thallium on the cells was 2 mM. […] Fluorescence data from the samples was plotted over time as fold increase in signal (post stimulus) over baseline (pre stimulus). Signal amplitude was compared from an average of 5-10 individual wells loaded with the dye indicated.
Cells expressing the hERG potassium ion channel were assayed using the thallium influx method described in Example 11 to compare the efficacy of various thallium ion indicators disclosed herein. Thallium indicators were prepared in loading buffer at the concentrations listed in Table 1 and loaded into cells for 60 minutes. […]

[1] = dye loading concentration 1 μM, excitation 470-500 nm, emission 520-540 nm
[2] = dye loading concentration 2 μM, excitation 470-500 nm, emission 520-540 nm

Row | SMILES | Fold Increase Over Baseline (fluorogenic response) (dye loading concentration 10 μM, excitation 545-565 nm, emission 580-600 nm) | change of fold increase (fluorogenic response) with dye loading concentration | Fold Increase Over Baseline (fluorogenic response) [1] | Fold Increase Over Baseline (fluorogenic response) [2] | detection of thallium ions (fluorescence dF/F over time) | response (signal amplitude) post stimulus, Compound 8 relative to Compound 9 | response (signal amplitude) post stimulus, Compound 8 relative to Compound 9 (listed as compound 8)
1 | COc1cc(-c2c3ccc(=[N+](C)C)cc-3oc3cc(N(C)C)ccc23)ccc1N(CC(=O)OCOC(C)=O)CC(=O)OCOC(C)=O.[Br-] [Compound 1, N-(9-(4-(bis(2-(acetoxymethoxy)-2-oxoethyl)amino)-3-methoxyphenyl)-6-(dimethylamino)-3H-xanthen-3-ylidene)-N-methylmethanaminium bromide] | 2.7 fold | – | – | – | – | – | –
2 | COc1ccc(NC(=O)c2ccc3c(c2)C(=O)OC32c3ccc(OC(C)=O)cc3Oc3cc(OC(C)=O)ccc32)cc1N(CC(=O)OCOC(C)=O)CC(=O)OCOC(C)=O [Compound 2, bis(acetoxymethyl) 2,2′-((5-(3′,6′-diacetoxy-3-oxo-3H-spiro[isobenzofuran-1,9′-xanthene]-5-carboxamido)-2-methoxyphenyl)azanediyl)diacetate] | – | little to no change | 1.2 fold | 1.3 fold | – | – | –
3 | COc1ccc(NC(=O)c2ccc3c(c2)C2(OC3=O)c3ccc(OC(C)=O)cc3Oc3cc(OC(C)=O)ccc32)cc1N(CC(=O)OCOC(C)=O)CC(=O)OCOC(C)=O [Compound 3, bis(acetoxymethyl) 2,2′-((5-(3′,6′-diacetoxy-3-oxo-3H-spiro[isobenzofuran-1,9′-xanthene]-6-carboxamido)-2-methoxyphenyl)azanediyl)diacetate] | – | – | 1.1 fold | 0.8 fold | – | – | –
4 | COc1ccc(NC(=O)c2ccc3c(c2)C2(OC3=O)c3cc(F)c(OC(C)=O)cc3Oc3cc(OC(C)=O)c(F)cc32)cc1N(CC(=O)OCOC(C)=O)CC(=O)OCOC(C)=O [Compound 4, bis(acetoxymethyl) 2,2′-((5-(3′,6′-diacetoxy-2′,7′-difluoro-3-oxo-3H-spiro[isobenzofuran-1,9′-xanthene]-6-carboxamido)-2-methoxyphenyl)azanediyl)diacetate] | – | – | 1.5 fold | 1.4 fold | – | – | –
5 | COc1cc(NC(=O)c2ccc3c(c2)C(=O)OC32c3ccc(OC(C)=O)cc3Oc3cc(OC(C)=O)ccc32)ccc1N(CC(=O)OCOC(C)=O)CC(=O)OCOC(C)=O [Compound 5, bis(acetoxymethyl) 2,2′-((4-(3′,6′-diacetoxy-3-oxo-3H-spiro[isobenzafuran-1,9′-xanthene]-5-carboxamido)-2-methoxyphenyl)azanediyl)diacetate] | – | decreased significantly | 3.7 fold | 3.1 fold | – | – | –
6 | COc1cc(NC(=O)c2ccc3c(c2)C2(OC3=O)c3ccc(OC(C)=O)cc3Oc3cc(OC(C)=O)ccc32)ccc1N(CC(=O)OCOC(C)=O)CC(=O)OCOC(C)=O [Compound 6, bis(acetoxymethyl) 2,2′-((4-(3′,6′-diacetoxy-3-oxo-3H-spiro[isobenzofuran-1,9′-xathene]-6-carboxamido)-2-methoxyphenyl)azanediyl)diacetate] | – | – | 3.7 fold | 2.8 fold | – | – | –
7 | COc1cc(NC(=O)c2ccc3c(c2)C2(OC3=O)c3cc(F)c(OC(C)=O)cc3Oc3cc(OC(C)=O)c(F)cc32)ccc1N(CC(=O)OCOC(C)=O)CC(=O)OCOC(C)=O [Compound 7, bis(acetoxymethyl) 2,2′-((4-(3′,6′-diacetoxy-2′,7′-difluroro-3-oxo-3H-spiro[isobenzofuran-1,9′-xanthene]-6-carboxamido)-2-methoxyphenyl)azanediyl)diacetate] | – | – | 2.3 fold | 1.5 fold | – | – | –
8 | COc1cc(NC(=O)c2ccc3c(c2)C(=O)OC32c3cc(F)c(OC(C)=O)cc3Oc3cc(OC(C)=O)c(F)cc32)ccc1N(CC(=O)OCOC(C)=O)CC(=O)OCOC(C)=O [Compound 8, bis(acetoxymethyl) 2,2′-((4-(3′,6′-diacetoxy-2′,7′-difluoro-3-oxo-3H-spiro[isobenzofuran-1,9′-xanthene]-5-carboxamido)-2-methoxyphenyl)azanediyl)diacetate] | – | not affected | 3.4 fold | 3.4 fold | detected the presence of thallium ions | far more sensitive to thallium ions than Compound 9 | larger response (signal amplitude)
9 | COc1ccc(NC(=O)c2ccc3c(c2)C(=O)OC32c3cc(F)c(OC(C)=O)cc3Oc3cc(OC(C)=O)c(F)cc32)cc1N(CC(=O)OCOC(C)=O)CC(=O)OCOC(C)=O [Compound 9, bis(acetoxymethyl) 2,2′-((5-(3′,6′-diacetoxy-2′,7′-difluoro-3-oxo-3H-spiro[isobenzofuran-1,9′-xanthene]-5-carboxamido)-2-methoxyphenyl)azanediyl)diacetate] | – | not affected | 2.0 fold | 2.0 fold | detected the presence of thallium ions | – | –
